# Reference: PMC11053489 (Viruses, 2024)
# Counter-ions that a name gives are not always drawn. Like-named read-outs stand apart in the source and are kept apart here.
# How the values were obtained:
# [1] = test system: SARS-CoV-2 (hCoV-19/USA-WA1/2020) in Vero CCL-81 cells; experiment: microbe, parasite or virus in culture; format: cell-based; settings: for anti-SARS-CoV-2 activity (in words), concentrations up to 100 μM: Vero CCL-81 cells
# in vitro [2] = settings: African green monkey
# [3] = human, in vivo
# in vitro [4] = settings: human, Caco-2
# in vitro [5] = settings: human
# [6] = test system: SARS-CoV-2 (hCoV-19/USA-WA1/2020) in Caco-2 cells
# [7] = test system: SARS-CoV-2 (hCoV-19/USA-WA1/2020) in Caco-2 cells; experiment: microbe, parasite or virus in culture; settings: Severe acute respiratory syndrome coronavirus 2, Caco-2, 72 h; for EC50: read-out: Caco-2 SARS-CoV-2 EC50; for EC90: read-out: Caco-2 SARS-CoV-2 EC90
# [8] = cited from earlier work; for Fun: Table 3, 1 – fraction bound reported in the literature, ref column Refs of Table 3
# in vitro [9] = settings: human; remark: listed apart in the source
# [10] = test system: SARS-CoV-2 (hCoV-19/USA-WA1/2020) in Calu-3 cells; experiment: microbe, parasite or virus in culture; format: cell-based; settings: for EC50 / EC90: Severe acute respiratory syndrome coronavirus 2, Calu-3, MOI 0.01, 72 h, 2% FBS; for EC50: read-out: Calu-3 SARS-CoV-2 EC50; for EC90: read-out: Calu-3 SARS-CoV-2 EC90; for anti-SARS-CoV-2 activity in Calu-3 cells (in words): tested up to 100 μM
# [11] = Peak plasma concentration; settings: human, in vivo
# [12] = MTS cytotoxicity assay, Vero CCL-81 cells; settings: African green monkey
# [13] = MTS cytotoxicity assay, Huh-7 cells; settings: human
# [14] = MTS cytotoxicity assay, Calu-3 cells; settings: human
# [15] = MTS cytotoxicity assay, PBM cells; settings: human
# [16] = MTS cytotoxicity assay, Caco-2 cells; settings: human
# [17] = MTS cytotoxicity assay, CEM cells; settings: human
# Huh-7 cells = settings: human, 4 days
# CCRF-CEM cells = settings: human, 4 days
# [18] = NAs and nucleoside-base precursors, evaluated up to 20 μM
# [19] = Severe acute respiratory syndrome coronavirus 2, Table 3, drugs tested only in Vero CCL-81, MOI 0.1, 48 h, read-out: Vero CCL-81 Cells EC50
# [20] = Severe acute respiratory syndrome coronavirus 2, Table 3, drugs tested only in Vero CCL-81, MOI 0.1, 48 h, read-out: Vero CCL-81 Cells EC90
# [21] = Severe acute respiratory syndrome coronavirus 2, Table 1 drugs, MOI 0.1, 48 h, 2% FBS, read-out: Vero CCL-81 SARS-CoV-2 EC50
# [22] = Severe acute respiratory syndrome coronavirus 2, Table 1 drugs, MOI 0.1, 48 h, 2% FBS, read-out: Vero CCL-81 SARS-CoV-2 EC90
smiles,measurement,setting,value
Nc1ccn([C@@H]2CS[C@H](CO)O2)c(=O)n1 [lamivudine],antiviral activity in Vero CCL-81 cells (in words),[1]; [18],lack of antiviral activity
CC(C)C(=O)OCC(=O)[C@@]12O[C@H](C3CCCCC3)O[C@@H]1C[C@H]1[C@@H]3CCC4=CC(=O)C=C[C@]4(C)[C@H]3[C@@H](O)C[C@@]12C [Ciclesonide],CC50 at 3 days,in vitro [2],33.9 µM
same,EC50,[1]; [19],4.1 µM
same,EC90,[1]; [20],7.8 µM
same,Cmax (μM) {unbound},[3],0.0000/1 μM
CC(C)OC(=O)[C@H](C)N[P@](=O)(OC[C@H]1O[C@@H](n2ccc(=O)[nH]c2=O)[C@](C)(F)[C@@H]1O)Oc1ccccc1 [sofosbuvir],antiviral activity in Vero CCL-81 cells (in words),[1],lack of antiviral activity
C[C@@H]1C[C@H]2[C@@H]3CCC4=CC(=O)C=C[C@]4(C)[C@@]3(F)[C@@H](O)C[C@]2(C)[C@@]1(O)C(=O)CO [dexamethasone],"anti-SARS-CoV-2 activity (in words), concentrations up to 100 μM",[1],inactive
CC(=O)Oc1ccccc1C(=O)Nc1ncc([N+](=O)[O-])s1 [Nitazoxanide],CC50 at 3 days,in vitro [2],8.7 µM
same,CC50 at 3 days,in vitro [4],7.2 µM
same,CC50 at 5 days,in vitro [5],8.3 µM
same,EC50,[1]; [21],1.4 µM
same,EC90,[1]; [22],3.9 µM
same,Cmax (μM) {unbound},[3],0.014 µM
same,Caco-2 Unbound Cmax/EC50,[6]; Caco-2,0.078
same,EC50,[7],4.4 µM
same,EC90,[7],11.1 µM
same,Fun (unbound fraction of drug in plasma),"[8]; Table 1, ref column Refs of Table 1",0.01
same,CC50 at 3 days,in vitro [9],49.8 µM
same,EC50,[10],22.8 µM
same,EC90,[10],42.9 µM
CC(C)OC(=O)OCOP(=O)(CO[C@H](C)Cn1cnc2c(N)ncnc21)OCOC(=O)OC(C)C [tenofovir disoproxil fumarate],antiviral activity in Vero CCL-81 cells (in words),[1]; [18],lack of antiviral activity
Nc1nc(=O)n([C@@H]2CS[C@H](CO)O2)cc1F [emtricitabine],antiviral activity in Vero CCL-81 cells (in words),[1]; [18],lack of antiviral activity
O=C(O)Cc1ccccc1Nc1c(Cl)cccc1Cl [Diclofenac sodium],EC50,[1]; [19],97.6 µM
same,EC90,[1]; [20],141 µM
same,Cmax (μM) {unbound},[11],0.012 µM
same,CC50 at 3 days,[12],> 100 µM
NC12CC3CC(CC(C3)C1)C2 [Amantadine],Cmax (μM) {unbound},[11],0.002 µM
same,CC50 at 3 days,[12],> 100 µM
CC(C)C(=O)OC[C@H]1O[C@@](C#N)(c2ccc3c(N)ncnn23)[C@H](O)[C@@H]1O [Obeldesivir],Cmax (μM) {unbound},[3],5.79 µM
same,Caco-2 Unbound Cmax/EC50,[6]; Caco-2,72
O=C1O[C@H]([C@@H](O)CO)C(O)=C1O [L-ascorbic acid],"anti-SARS-CoV-2 activity (in words), concentrations up to 100 μM",[1],inactive
COc1ccc2[nH]cc(CCNC(C)=O)c2c1 [Melatonin],EC50,[1]; [19],22 µM
same,Cmax (μM) {unbound},[11],0.005 µM
same,Fun,[8],0.22
same,CC50 at 3 days,[12],> 100 µM
CN1CC[C@H](c2c(O)cc(O)c3c(=O)cc(-c4ccccc4Cl)oc23)[C@H](O)C1 [Flavopiridol],EC50,[1]; [19],0.1 µM
same,EC90,[1]; [20],1.1 µM
same,Cmax (μM) {unbound},[11],0.096 µM
same,Fun,[8],0.05
same,CC50 at 3 days,[12],0.031 µM
NC(=O)c1ncn([C@@H]2O[C@H](CO)[C@@H](O)[C@H]2O)n1 [ribavirin],antiviral activity in Vero CCL-81 cells (in words),[1]; [18],lack of antiviral activity
CC(C)OC(=O)C(C)(C)Oc1ccc(C(=O)c2ccc(Cl)cc2)cc1 [Fenofibrate],CC50 at 4 days,[13],> 100 µM
same,CC50 at 3 days,[14],≥ 100 µM
same,CC50 at 5 days,[15],38.9 µM
same,Cmax (μM) {unbound},[11],0.28 µM
same,anti-SARS-CoV-2 activity in Caco-2 cells (in words),[6]; tested up to 100 μM,inactive
same,CC50 at 3 days,[16],> 100 µM
same,CC50 at 3 days,[12],> 100 µM
same,CC50 at 4 days,"[17]; CEM CC50, 4 days",28.5 µM
same,anti-SARS-CoV-2 activity in Calu-3 cells (in words),[10],inactive
COC(=O)N[C@H](C(=O)N1CCC[C@H]1c1nc(-c2ccc3c(c2)O[C@@H](c2ccccc2)n2c-3cc3cc(-c4c[nH]c([C@@H]5CCCN5C(=O)[C@@H](NC(=O)OC)C(C)C)n4)ccc32)c[nH]1)C(C)C [Elbasivir],CC50 at 3 days,in vitro [2],> 100 µM
same,EC50,[1]; [19],3.4 µM
same,EC90,[1]; [20],12.5 µM
same,Cmax (μM) {unbound},[3],0.003 µM
c1cc(CN2CCCNCCNCCCNCC2)ccc1CN1CCCNCCNCCCNCC1 [plerixafor],"anti-SARS-CoV-2 activity (in words), concentrations up to 100 μM",[1],inactive
Cc1cccc(/C=N/Nc2cc(N3CCOCC3)nc(OCCc3ccccn3)n2)c1 [Apilimod mesylate],CC50 at 3 days,in vitro [2],> 100 µM
same,CC50 at 3 days,in vitro [4],> 100 µM
same,CC50 at 5 days,in vitro [5],> 100 µM
same,Huh7 CC50 {Unbound},Huh-7 cells,54.8 µM
same,EC50,[1]; [21],0.7 µM
same,EC90,[1]; [22],7.4 µM
same,Cmax (μM) {unbound},[3],0.043 µM
same,CEM CC50 {Unbound},CCRF-CEM cells,62.2 µM
same,Caco-2 Unbound Cmax/EC50,[6]; Caco-2,0.0005
same,EC50,[7],85 µM
same,EC90,[7],> 100 µM
same,CC50 at 3 days,in vitro [9],> 100 µM
same,EC50,[10],> 100 µM
same,anti-SARS-CoV-2 activity in Calu-3 cells (in words),[10],inactive
O=C(O)COCCN1CCN(C(c2ccccc2)c2ccc(Cl)cc2)CC1 (stereo not shown) [cetirizine],"anti-SARS-CoV-2 activity (in words), concentrations up to 100 μM",[1],inactive
CC#CC(=O)N1CCC[C@H]1c1nc(-c2ccc(C(=O)Nc3ccccn3)cc2)c2c(N)nccn12 [Acalabrutinib],CC50 at 3 days,in vitro [2],> 100 µM
same,EC50,[1]; [19],11.1 µM
same,EC90,[1]; [20],70.9 µM
same,Cmax (μM) {unbound},[3],0.017 µM
CC(C)/N=c1\cc2n(-c3ccc(Cl)cc3)c3ccccc3nc-2cc1Nc1ccc(Cl)cc1 [Clofazimine],CC50 at 3 days,in vitro [2],34.3 µM
same,EC50,[1]; [19],0.5 µM
same,EC90,[1]; [20],3 µM
same,Cmax (μM) {unbound},[11],0.002 µM
same,Fun,[8],0.001
C[C@H]1c2cccc(O)c2C(=O)C2=C(O)[C@]3(O)C(=O)C(C(N)=O)=C(O)[C@@H](N(C)C)[C@@H]3[C@@H](O)[C@@H]21 [Doxycycline],EC50,[1]; [19],69.3 µM
same,EC90,[1]; [20],102 µM
same,Cmax (μM) {unbound},[11],0.55 µM
same,Fun,[8],0.15
same,CC50 at 3 days,[12],≥ 100 µM
COC[C@H]1C[C@@H](c2ncc(-c3ccc4c(c3)COc3cc5c(ccc6nc([C@@H]7CC[C@H](C)N7C(=O)[C@@H](NC(=O)OC)C(C)C)[nH]c65)cc3-4)[nH]2)N(C(=O)[C@H](NC(=O)OC)c2ccccc2)C1 [Velpatasvir],CC50 at 3 days,in vitro [2],> 100 µM
same,EC50,[1]; [19],19.1 µM
same,EC90,[1]; [20],79.6 µM
same,Cmax (μM) {unbound},[3],0.001 µM
NC(N)=Nc1nc(CSCCC(N)=NS(N)(=O)=O)cs1 [Famotidine],EC50,[1]; [19],160 µM
same,Cmax (μM) {unbound},[11],0.16 µM
same,Fun,[8],0.8
same,CC50 at 3 days,[12],> 100 µM
"CC(C)C(=O)OC[C@H]1O[C@@H](n2ccc(NO)nc2=O)[C@H](O)[C@@H]1O [Molnupiravir (NHC), Molnupiravir]",EC50,[1]; [21],0.6 µM
same,EC90,[1]; [22],1.4 µM
same,Cmax (μM) {unbound},[3],7.10 µM
same,Caco-2 Unbound Cmax/EC50,[6]; Caco-2,5.3
same,EC50,[7],1.7 µM
same,EC90,[7],12.2 µM
same,Fun (unbound fraction of drug in plasma),[8]; plasma,1
same,EC50,[10],0.4 µM
same,EC90,[10],1.8 µM
CC(C)OC(=O)[C@H](C)N[P@](=O)(CO[C@H](C)Cn1cnc2c(N)ncnc21)Oc1ccccc1 [tenofovir alafenamide],antiviral activity in Vero CCL-81 cells (in words),[1],lack of antiviral activity
CCCCCc1cc(O)c2c(c1)OC(C)(C)c1ccc(C)cc1-2 [Cannabinol],CC50,in vitro [2],37.3 µM
same,EC50,"[1]; Severe acute respiratory syndrome coronavirus 2, 48 h, read-out: Vero CCL-81 Cells EC50",2.7 µM
same,EC90,"[1]; Severe acute respiratory syndrome coronavirus 2, 48 h, read-out: Vero CCL-81 Cells EC90",8.7 µM
same,Fun,[8],0.1
CN(Cc1cc(Br)cc(Br)c1N)C1CCCCC1 [Bromhexine],CC50 at 3 days,in vitro [2],> 100 µM
same,EC50,[1]; [19],0.8 µM
same,EC90,[1]; [20],6.2 µM
same,Cmax (μM) {unbound},[3],0.005 µM
Cc1ccc(-c2cc(C(F)(F)F)nn2-c2ccc(S(N)(=O)=O)cc2)cc1 [Celecoxib],CC50 at 4 days,[13],31.1 µM
same,EC50,[1]; [21],7.2 µM
same,EC90,[1]; [22],14.6 µM
same,CC50 at 3 days,[14],70.5 µM
same,CC50 at 5 days,[15],> 100 µM
same,Cmax (μM) {unbound},[11],0.056 µM
same,Caco-2 Unbound Cmax/EC50,[6]; Cmax × Fun/EC50,0.08
same,EC50,[7],0.7 µM
same,EC90,[7],1.2 µM
same,CC50 at 3 days,[16],59.1 µM
same,CC50 at 3 days,[12],50 µM
same,CC50 at 4 days,[17],77.1 µM
same,EC50,[10],3 µM
same,EC90,[10],6.3 µM
CC(C)(O)c1ccccc1CC[C@@H](SCC1(CC(=O)O)CC1)c1cccc(/C=C/c2ccc3ccc(Cl)cc3n2)c1 [Montelukast sodium],Cmax (μM) {unbound},[11],0.009 µM
CN(C)CCC(c1ccc(Cl)cc1)c1ccccn1 (stereo not shown) [Chlorpheniramine maleate],EC50,[1]; [19],31 µM
same,EC90,[1]; [20],104 µM
same,Cmax (μM) {unbound},[11],0.008 µM
same,Fun,[8],0.28
same,CC50 at 3 days,[12],> 100 µM
